Measurements taken from ChEMBL document CHEMBL1201862, “PubChem BioAssay data set” (2004).
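Where inhibition never reached the appropriate level, the endpoint shown equals the highest concentration tested. Otherwise, values were interpolated linearly from a five-concentration, 48-hour dose response in 96-well plates. GI50 = concentration required for 50% inhibition of growth.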 Calls of active or inactive are those of the source. Rule as the data show it: active = GI50 up to about 1.1 µM and inactive = higher.

Columns and labels:
Test in all cases: NCI anticancer screen, dose series, 48 h
[1] = test system: A549
[2] = test system: CAKI-1
[3] = test system: OVCAR-3
[4] = test system: COLO 205
[5] = test system: SK-OV-3
[6] = test system: SF-539
[7] = test system: K562
[8] = test system: LXFL 529
[9] = test system: KM12
[10] = test system: U-251
[11] = test system: TK-10
[12] = test system: HT-29
[13] = test system: Malme-3M
[14] = test system: NCI-H522
[15] = test system: OVCAR-5
[16] = test system: OVCAR-4
[17] = test system: A498
[18] = test system: BT-549
[19] = test system: MCF7
[20] = test system: MDA-MB-435

Measured: GI50

Cc1[nH]nc2c1C(=O)C=C(N(CCO)c1ccccc1)C2=O
inactive: [1] > 100 µM | [2] > 100 µM | [3] > 100 µM | [4] > 100 µM | [5] > 100 µM | [6] > 100 µM | [7] > 100 µM | [8] > 100 µM | [9] > 100 µM | [10] > 100 µM | [11] > 100 µM | [12] > 100 µM | [13] > 100 µM | [14] > 100 µM

COC(=O)c1cc(OC(C)=O)c2c(OC)ccc(OC)c2c1
inactive: [1] > 100 µM | [2] > 100 µM | [3] > 100 µM | [4] > 100 µM | [5] > 100 µM | [6] > 100 µM | [7] > 100 µM | [15] > 100 µM | [8] > 100 µM | [16] > 100 µM | [9] > 100 µM | [10] > 100 µM | [11] > 100 µM | [12] 47.9 µM | [13] > 100 µM

COC(=O)c1cc(C)c(C)c2c1NC(=O)CNC2=O
inactive: [1] > 100 µM | [17] > 100 µM | [2] > 100 µM | [3] > 100 µM | [4] > 100 µM | [6] > 100 µM | [7] > 100 µM | [8] > 100 µM | [16] > 100 µM | [9] > 100 µM | [10] > 100 µM | [12] > 100 µM

CCOC(=O)NC(=O)c1cn(CCN2CCN(C(=O)CCCCCCCCCCNc3ncnc4c3ncn4C3OC(CO)C(O)C3O)CC2)c(=O)[nH]c1=O (stereo not drawn)
inactive: [1] > 100 µM | [17] > 100 µM | [2] > 100 µM | [4] > 100 µM | [5] > 100 µM | [7] > 100 µM | [8] > 100 µM | [9] > 100 µM | [10] > 100 µM | [11] > 100 µM | [12] > 100 µM | [13] > 100 µM

COc1cc(C(=O)Nc2cccc3ccccc23)c(Br)c(OC)c1OC
inactive: [1] 66.2 µM | [2] > 100 µM | [3] > 100 µM | [4] > 100 µM | [5] > 100 µM | [6] > 100 µM | [7] 43.5 µM | [15] 64.4 µM | [8] 31.1 µM | [16] 16.5 µM | [9] 70.3 µM | [10] > 100 µM | [11] > 100 µM | [12] > 100 µM | [13] 67.6 µM | [14] 56.9 µM

COc1cc(C(=O)O)cc2c1[nH]c1ccccc12 [MUKOEIC ACID]
inactive: [1] > 25 µM | [3] > 25 µM | [4] > 25 µM | [5] > 25 µM | [6] > 25 µM | [7] > 25 µM | [15] > 25 µM | [8] > 25 µM | [16] > 25 µM | [9] > 25 µM | [10] > 25 µM | [11] > 25 µM | [12] > 25 µM | [13] > 25 µM | [14] > 25 µM

O=C(/C=C1\Nc2ccc([N+](=O)[O-])cc2N\C1=C/C(=O)c1ccc(F)cc1)c1ccc(F)cc1
inactive: [1] > 100 µM | [17] 19.6 µM | [18] 31.1 µM | [2] 48.1 µM | [19] 52.8 µM | [3] 25 µM | [4] > 100 µM | [5] 17.9 µM | [6] 19.6 µM | [7] 22.2 µM | [20] > 100 µM | [15] > 100 µM | [16] > 100 µM | [9] > 100 µM | [10] 10.2 µM | [11] 15.3 µM | [12] > 100 µM | [13] > 100 µM | [14] 10.5 µM
